Source: patent publication US20260014358A1, “THERMALLY REGULATED TRANSDERMAL DRUG DELIVERY SYSTEM” (Morningside Venture Investments Limited, priority 2018, published 2026)
Like-named read-outs stand apart in the source and are kept apart here.

Conditions: for Nicotine flow across the skin: passive matrix-type patch containing 21 mg nicotine on human cadaver skin, average of test patches (n=4)
Method: Experiments were carried out by applying passive matrix-type nicotine patches containing 21 mg of nicotine to human cadaver skin and then periodically heating and cooling the patches over a period of 20 hours. Controls with no heating and cooling were tested concurrently. The test patches were subject to 3 cycles of heating and cooling while the control patches were not. Patches were heated for 2 hours, cooled for 5 hours, heated for 2 hours, cooled for 4 hours, heated for 2 hours, and cooled. Nicotine delivery across the skin was measured and averaged for control patches (n=2) and test patches (n=4).

With `CN1CCCC1c1cccnc1` (stereo not shown) [Nicotine] the “Nicotine flow across the skin” value (first 2-hour heating period) was “around 4.9 mg/hr”, the “Change of nicotine flow across the skin when heat was applied” value (heated and cooled test patches, 3 cycles over 20 hours, human cadaver skin) was “increased” and the “Nicotine flow across the skin” value (second 2-hour heating period (after 5 hours cooling)) was “around 2.5 mg/hr”. For the same molecule, the “Nicotine flow across the skin” value (third 2-hour heating period (after 4 hours cooling)) was “around 1.8 mg/hr”.
